Laboratory results taken from US20210309631A1, “SALT OF CYCLOHEXANE DERIVATIVE” (priority 2018, published 2021).

Assays:
[1] = In vivo individual difference analysis: individual plasma concentration versus time in rats (Example 8); design: species or system SD rats; settings: intragastric 1 mg/kg, listed as Sulfate of Compound of Formula I
Experimental: Compound of Formula I and salts thereof (sulfate, hydrochloride salt, phosphate, maleate), supplied by Shanghai Jingxin Biopharmaceutical Co., Ltd. • Strain: SD rats; Gender: male; Body weight: about 250 grams; Source: shanghai Jiesijie Experimental Animal Co., Ltd Route: single intragastric administration; Capacity: measured in 10 mL/kg body weight Preparation: weighing appropriate amount of the free base or salt of the compound of Formula I, adding a small amount of 0.5% CMC-Na to grind, adding 0.5% CMC-Na to the volume. The concentration is measured as the base. 20 SD rats were divided into 5 groups with 4 rats in each group, fasted for 12 h and drank freely before administration. […] The blood was anticoagulated with 1% heparin, the plasma was separated by 8000 rpm centrifugation for 4 min and stored at -40° C. for testing. LC-MS/MS Method. Pharmacokinetic parameters after administration in rats were calculated using a non-compartmental model of DAS 2.0 software.

[2] = Hygroscopicity (DVS) experiment, 25° C./80% relative humidity; format: physicochemical
Experimental: Dynamic vapor sorption curves were collected on a DVS Intrinsic by SMS (Surface Measurement Systems).
20 mg sample of the crystal forms of the Examples and Comparative Examples are placed in the environment of 25° C./80% relative humidity for a dynamic vapor sorption (DVS) test, and the test results […] are shown in Table 5.

solubility in water = format: physicochemical; settings: listed as sulfate Form A
[3] = Plasma pharmacokinetics in SD rats after single intragastric administration (Example 7); format: in vivo; settings: intragastric 1 mg/kg, Mean ± SD, non-compartmental model, listed as Sulfate
Experimental: The in vivo absorption process and characteristics of the free base and four salts thereof (sulfate, hydrochloride salt, phosphate, maleate) of compound (I) in rats were studied. The pharmacokinetics of a single intragastric administration of 1 mg/kg of a compound of Formula I and four salts thereof (calculated by free base concentration in salt form) were studied in SD rats.
SD rats were given a single intragastric administration of 1 mg/kg free base of Example 1 and four salts thereof (including hydrochloride salt from Example 2, sulfate from Example 3, phosphate from Example 4 and maleate from Example 5). There were 4 male rats in each group. The concentration of the compound of Formula I in plasma was determined, and the pharmacokinetic parameters were calculated according to the concentration-time curve.

[4] = DVS, 25° C./80% relative humidity, listed as Example 3 sulfate

## CN(C)C(=O)N[C@H]1CC[C@H](CCN2CCN(c3cccc4ccsc34)CC2)CC1 [Example 3, N′-[trans-4-[2-[7-(benzo[b]thiophene)-7-piperazinyl]ethyl]cyclohexyl]-N,N-dimethylurea]
[1]; 5 min after administration, Mean ± SD
  Plasma Concentrations of Compound of Formula I: 2.25 ± 0.476 ng/mL
[1]; 5 min after administration, rat 1♂
  Plasma Concentrations of Compound of Formula I: 1.54 ng/mL
[1]; 5 min after administration, rat 2♂
  Plasma Concentrations of Compound of Formula I: 2.41 ng/mL
[1]; 5 min after administration, rat 3♂
  Plasma Concentrations of Compound of Formula I: 2.56 ng/mL
[1]; 5 min after administration, rat 4♂
  Plasma Concentrations of Compound of Formula I: 2.48 ng/mL
[1]; 0.167 h after administration, Mean ± SD
  Plasma Concentrations of Compound of Formula I: 21.7 ± 2.45 ng/mL
[1]; 0.167 h after administration, rat 1♂
  Plasma Concentrations of Compound of Formula I: 24.0 ng/mL
[1]; 0.167 h after administration, rat 2♂
  Plasma Concentrations of Compound of Formula I: 18.4 ng/mL
[1]; 0.167 h after administration, rat 3♂
  Plasma Concentrations of Compound of Formula I: 23.0 ng/mL
[1]; 0.167 h after administration, rat 4♂
  Plasma Concentrations of Compound of Formula I: 21.3 ng/mL
[1]; 0.333 h after administration, Mean ± SD
  Plasma Concentrations of Compound of Formula I: 51.2 ± 2.32 ng/mL
[1]; 0.333 h after administration, rat 1♂
  Plasma Concentrations of Compound of Formula I: 50.4 ng/mL
[1]; 0.333 h after administration, rat 2♂
  Plasma Concentrations of Compound of Formula I: 54.4 ng/mL
[1]; 0.333 h after administration, rat 3♂
  Plasma Concentrations of Compound of Formula I: 51.0 ng/mL
[1]; 0.333 h after administration, rat 4♂
  Plasma Concentrations of Compound of Formula I: 48.9 ng/mL
[1]; 0.5 h after administration, Mean ± SD
  Plasma Concentrations of Compound of Formula I: 49.9 ± 10.4 ng/mL
[1]; 0.5 h after administration, rat 1♂
  Plasma Concentrations of Compound of Formula I: 56.0 ng/mL
[1]; 0.5 h after administration, rat 2♂
  Plasma Concentrations of Compound of Formula I: 36.0 ng/mL
[1]; 0.5 h after administration, rat 3♂
  Plasma Concentrations of Compound of Formula I: 48.0 ng/mL
[1]; 0.5 h after administration, rat 4♂
  Plasma Concentrations of Compound of Formula I: 59.4 ng/mL
[1]; 1 h after administration, Mean ± SD
  Plasma Concentrations of Compound of Formula I: 39.2 ± 6.84 ng/mL
[1]; 1 h after administration, rat 1♂
  Plasma Concentrations of Compound of Formula I: 42.6 ng/mL
[1]; 1 h after administration, rat 2♂
  Plasma Concentrations of Compound of Formula I: 30.0 ng/mL
[1]; 1 h after administration, rat 3♂
  Plasma Concentrations of Compound of Formula I: 38.5 ng/mL
[1]; 1 h after administration, rat 4♂
  Plasma Concentrations of Compound of Formula I: 45.8 ng/mL
[1]; 2 h after administration, Mean ± SD
  Plasma Concentrations of Compound of Formula I: 23.2 ± 7.54 ng/mL
[1]; 2 h after administration, rat 1♂
  Plasma Concentrations of Compound of Formula I: 32.7 ng/mL
[1]; 2 h after administration, rat 2♂
  Plasma Concentrations of Compound of Formula I: 14.5 ng/mL
[1]; 2 h after administration, rat 3♂
  Plasma Concentrations of Compound of Formula I: 24.1 ng/mL
[1]; 2 h after administration, rat 4♂
  Plasma Concentrations of Compound of Formula I: 21.3 ng/mL
[1]; 4 h after administration, Mean ± SD
  Plasma Concentrations of Compound of Formula I: 7.92 ± 3.01 ng/mL
[1]; 4 h after administration, rat 1♂
  Plasma Concentrations of Compound of Formula I: 10.3 ng/mL
[1]; 4 h after administration, rat 2♂
  Plasma Concentrations of Compound of Formula I: 4.31 ng/mL
[1]; 4 h after administration, rat 3♂
  Plasma Concentrations of Compound of Formula I: 10.5 ng/mL
[1]; 4 h after administration, rat 4♂
  Plasma Concentrations of Compound of Formula I: 6.57 ng/mL
[1]; 6 h after administration, Mean ± SD
  Plasma Concentrations of Compound of Formula I: 2.87 ± 1.10 ng/mL
[1]; 6 h after administration, rat 1♂
  Plasma Concentrations of Compound of Formula I: 3.08 ng/mL
[1]; 6 h after administration, rat 2♂
  Plasma Concentrations of Compound of Formula I: 1.35 ng/mL
[1]; 6 h after administration, rat 3♂
  Plasma Concentrations of Compound of Formula I: 3.99 ng/mL
[1]; 6 h after administration, rat 4♂
  Plasma Concentrations of Compound of Formula I: 3.05 ng/mL
[1]; 9 h after administration, Mean ± SD
  Plasma Concentrations of Compound of Formula I: 1.15 ± 0.444 ng/mL
[1]; 9 h after administration, rat 1♂
  Plasma Concentrations of Compound of Formula I: 1.30 ng/mL
[1]; 9 h after administration, rat 2♂
  Plasma Concentrations of Compound of Formula I: 0.643 ng/mL
[1]; 9 h after administration, rat 3♂
  Plasma Concentrations of Compound of Formula I: 1.68 ng/mL
[1]; 9 h after administration, rat 4♂
  Plasma Concentrations of Compound of Formula I: 0.973 ng/mL
[1]; 12 h after administration, Mean ± SD
  Plasma Concentrations of Compound of Formula I: 0.606 ± 0.221 ng/mL
[1]; 12 h after administration, rat 1♂
  Plasma Concentrations of Compound of Formula I: 0.718 ng/mL
[1]; 12 h after administration, rat 2♂
  Plasma Concentrations of Compound of Formula I: 0.317 ng/mL
[1]; 12 h after administration, rat 3♂
  Plasma Concentrations of Compound of Formula I: 0.827 ng/mL
[1]; 12 h after administration, rat 4♂
  Plasma Concentrations of Compound of Formula I: 0.561 ng/mL
[1]; 24 h after administration, Mean ± SD
  Plasma Concentrations of Compound of Formula I: 0.244 ± 0.161 ng/mL
[1]; 24 h after administration, rat 1♂
  Plasma Concentrations of Compound of Formula I: 0.213 ng/mL
[1]; 24 h after administration, rat 2♂
  Plasma Concentrations of Compound of Formula I: 0.135 ng/mL
[1]; 24 h after administration, rat 3♂
  Plasma Concentrations of Compound of Formula I: 0.148 ng/mL
[1]; 24 h after administration, rat 4♂
  Plasma Concentrations of Compound of Formula I: 0.479 ng/mL
[2]; [4]
  Hygroscopicity: Slight
  Vapor sorption: 0.23%
[2]; after DVS testing
  The crystal form changes after DVS testing or not: No
Solubility in water
  solubility in water: greater than 8.0 mg/ml
[3]
  MRT0-∞: 2.87 ± 0.283 h
  Tmax: 0.417 ± 0.096 h
  t1/2: 2.67 ± 0.267 h
